Results: PubChem BioAssay (NCI)
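Compound exposure: 48 hours, 5 concentrations, 96-well plates. At the GI50, growth is halved. The concentration for full growth arrest is given as TGI.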

Legend:
Test in all cases: NCI tumour cell line growth inhibition, 48 h
HL-60(TB) leukemia = test system: HL-60(TB) leukemia
UACC-62 melanoma = test system: UACC-62 melanoma
HCT-15 colon = test system: HCT-15 colon
NCI-H23 lung = test system: NCI-H23 lung
ACHN renal = test system: ACHN renal
CAKI-1 renal = test system: CAKI-1 renal
NCI-H226 lung = test system: NCI-H226 lung
LOX IMVI melanoma = test system: LOX IMVI melanoma
SK-MEL-5 melanoma = test system: SK-MEL-5 melanoma
SNB-19 CNS = test system: SNB-19 CNS
HT29 colon = test system: HT29 colon
U251 CNS = test system: U251 CNS
SR leukemia = test system: SR leukemia
MALME-3M melanoma = test system: MALME-3M melanoma
SF-539 CNS = test system: SF-539 CNS
MDA-MB-231 breast = test system: MDA-MB-231 breast
M14 melanoma = test system: M14 melanoma
DU-145 prostate = test system: DU-145 prostate
NCI-H460 lung = test system: NCI-H460 lung
SW-620 colon = test system: SW-620 colon
OVCAR-8 ovarian = test system: OVCAR-8 ovarian
786-0 renal = test system: 786-0 renal
KM12 colon = test system: KM12 colon
TK-10 renal = test system: TK-10 renal
OVCAR-4 ovarian = test system: OVCAR-4 ovarian
T-47D breast = test system: T-47D breast
SK-MEL-2 melanoma = test system: SK-MEL-2 melanoma
HCT-116 colon = test system: HCT-116 colon
K-562 leukemia = test system: K-562 leukemia
OVCAR-5 ovarian = test system: OVCAR-5 ovarian
CCRF-CEM leukemia = test system: CCRF-CEM leukemia
SK-OV-3 ovarian = test system: SK-OV-3 ovarian
MCF7 breast = test system: MCF7 breast
PC-3 prostate = test system: PC-3 prostate
RXF 393 renal = test system: RXF 393 renal
EKVX NSCLC = test system: EKVX NSCLC
UO-31 renal = test system: UO-31 renal
RPMI-8226 leukemia = test system: RPMI-8226 leukemia
NCI-H522 lung = test system: NCI-H522 lung
HOP-92 NSCLC = test system: HOP-92 NSCLC
SF-268 CNS = test system: SF-268 CNS
HOP-62 NSCLC = test system: HOP-62 NSCLC
HCC-2998 colon = test system: HCC-2998 colon
A549 NSCLC = test system: A549 NSCLC
IGROV1 ovarian = test system: IGROV1 ovarian
NCI/ADR-RES ovarian = test system: NCI/ADR-RES ovarian
COLO 205 colon = test system: COLO 205 colon
SF-295 CNS = test system: SF-295 CNS
SK-MEL-28 melanoma = test system: SK-MEL-28 melanoma
UACC-257 melanoma = test system: UACC-257 melanoma
MDA-MB-435 = test system: MDA-MB-435
A498 renal = test system: A498 renal
OVCAR-3 ovarian = test system: OVCAR-3 ovarian
HS 578T breast = test system: HS 578T breast
MOLT-4 leukemia = test system: MOLT-4 leukemia
SN12C renal = test system: SN12C renal
BT-549 breast = test system: BT-549 breast
MDA-N = test system: MDA-N
SNB-75 CNS = test system: SNB-75 CNS

In the case of `Nc1c(O)c(S(=O)(=O)O)c(O)c2c1C(=O)c1ccccc1C2=O`, the GI50 (HL-60(TB) leukemia) is reported as 1.56 µM, the TGI (HL-60(TB) leukemia) is reported as 3.65 µM and the GI50 (UACC-62 melanoma) is reported as 3.21 µM. For the same molecule, the TGI (UACC-62 melanoma) was 65.6 µM, the GI50 (HCT-15 colon) was 2.64 µM and the TGI (HCT-15 colon) was 11.2 µM. It also gave a GI50 (NCI-H23 lung) of 2.82 µM, a TGI (NCI-H23 lung) of 9.88 µM and a GI50 (ACHN renal) of 2.43 µM. The TGI (ACHN renal) was 6.8 µM, the GI50 (CAKI-1 renal) was 2.34 µM and the TGI (CAKI-1 renal) was 7.26 µM. For the same molecule, the GI50 (NCI-H226 lung) was 4.12 µM, the TGI (NCI-H226 lung) was greater than 100 µM and the GI50 (LOX IMVI melanoma) was 3.08 µM. It also gave a TGI (LOX IMVI melanoma) of 12.3 µM, a GI50 (SK-MEL-5 melanoma) of 1.97 µM and a TGI (SK-MEL-5 melanoma) of 4.07 µM. It also gave a GI50 (SNB-19 CNS) of 3.8 µM, a TGI (SNB-19 CNS) of 52.4 µM and a GI50 (HT29 colon) of 2.72 µM. For the same molecule, the TGI (HT29 colon) was 10.4 µM, the GI50 (U251 CNS) was 3.09 µM and the TGI (U251 CNS) was 11.1 µM. The GI50 (SR leukemia) was 2.03 µM, the TGI (SR leukemia) was 7.17 µM and the GI50 (MALME-3M melanoma) was 2.61 µM. It also gave a TGI (MALME-3M melanoma) of 8.36 µM, a GI50 (SF-539 CNS) of 6.36 µM and a TGI (SF-539 CNS) of 30.6 µM. For the same molecule, the GI50 (MDA-MB-231 breast) was 5.85 µM, the TGI (MDA-MB-231 breast) was 28.1 µM and the GI50 (M14 melanoma) was 3.95 µM. For the same molecule, the TGI (M14 melanoma) was greater than 100 µM, the GI50 (DU-145 prostate) was 3.8 µM and the TGI (DU-145 prostate) was greater than 100 µM. The GI50 (NCI-H460 lung) was 2.86 µM, the TGI (NCI-H460 lung) was 22 µM and the GI50 (SW-620 colon) was 3.24 µM. It also gave a TGI (SW-620 colon) greater than 100 µM, a GI50 (OVCAR-8 ovarian) of 2.98 µM and a TGI (OVCAR-8 ovarian) of 13.4 µM. The GI50 (786-0 renal) was 4.73 µM, the TGI (786-0 renal) was 41.3 µM and the GI50 (KM12 colon) was 2.94 µM. It also gave a TGI (KM12 colon) of 12.8 µM, a GI50 (TK-10 renal) of 2.91 µM and a TGI (TK-10 renal) of 9.73 µM. For the same molecule, the GI50 (OVCAR-4 ovarian) was 3.06 µM, the TGI (OVCAR-4 ovarian) was 20.8 µM and the GI50 (T-47D breast) was 2.36 µM. It also gave a TGI (T-47D breast) of 7.37 µM, a GI50 (SK-MEL-2 melanoma) of 2.25 µM and a TGI (SK-MEL-2 melanoma) of 6.21 µM. The GI50 (HCT-116 colon) was 2.78 µM, the TGI (HCT-116 colon) was 10.9 µM and the GI50 (K-562 leukemia) was 3.13 µM. It also gave a TGI (K-562 leukemia) of 13.9 µM, a GI50 (OVCAR-5 ovarian) of 3.22 µM and a TGI (OVCAR-5 ovarian) of 32.5 µM. For the same molecule, the GI50 (CCRF-CEM leukemia) was 3.1 µM, the TGI (CCRF-CEM leukemia) was 11 µM and the GI50 (SK-OV-3 ovarian) was 1.98 µM. It also gave a TGI (SK-OV-3 ovarian) of 5.36 µM, a GI50 (MCF7 breast) of 2.5 µM and a TGI (MCF7 breast) of 8.13 µM. It also gave a GI50 (PC-3 prostate) of 2.32 µM, a TGI (PC-3 prostate) of 7.87 µM and a GI50 (RXF 393 renal) of 3.37 µM. For the same molecule, the TGI (RXF 393 renal) was greater than 100 µM, the GI50 (EKVX NSCLC) was 3.09 µM and the TGI (EKVX NSCLC) was greater than 100 µM. The GI50 (UO-31 renal) was 2.47 µM, the TGI (UO-31 renal) was 9.13 µM and the GI50 (RPMI-8226 leukemia) was 2.53 µM. It also gave a TGI (RPMI-8226 leukemia) of 7.77 µM, a GI50 (NCI-H522 lung) of 2.68 µM and a TGI (NCI-H522 lung) of 9.17 µM. The GI50 (HOP-92 NSCLC) was 1.5 µM, the TGI (HOP-92 NSCLC) was 4.65 µM and the GI50 (SF-268 CNS) was 3.44 µM. It also gave a TGI (SF-268 CNS) greater than 100 µM, a GI50 (HOP-62 NSCLC) of 2.92 µM and a TGI (HOP-62 NSCLC) greater than 100 µM. It also gave a GI50 (HCC-2998 colon) of 2.84 µM, a TGI (HCC-2998 colon) of 32.8 µM and a GI50 (A549 NSCLC) of 2.9 µM. It also gave a TGI (A549 NSCLC) of 12 µM, a GI50 (IGROV1 ovarian) of 3.29 µM and a TGI (IGROV1 ovarian) greater than 100 µM. For the same molecule, the GI50 (NCI/ADR-RES ovarian) was 2.99 µM, the TGI (NCI/ADR-RES ovarian) was 13.9 µM and the GI50 (COLO 205 colon) was 1.61 µM. It also gave a TGI (COLO 205 colon) of 3.01 µM, a GI50 (SF-295 CNS) of 2.32 µM and a TGI (SF-295 CNS) of 7.27 µM. The GI50 (SK-MEL-28 melanoma) was 4.09 µM, the TGI (SK-MEL-28 melanoma) was greater than 100 µM and the GI50 (UACC-257 melanoma) was 2.38 µM. For the same molecule, the TGI (UACC-257 melanoma) was 6.33 µM, the GI50 (MDA-MB-435) was 3.33 µM and the TGI (MDA-MB-435) was greater than 100 µM. It also gave a GI50 (A498 renal) of 2.33 µM, a TGI (A498 renal) of 7.53 µM and a GI50 (OVCAR-3 ovarian) of 2.94 µM. The TGI (OVCAR-3 ovarian) was 14.5 µM, the GI50 (HS 578T breast) was 4.69 µM and the TGI (HS 578T breast) was greater than 100 µM. It also gave a GI50 (MOLT-4 leukemia) of 1.9 µM, a TGI (MOLT-4 leukemia) of 4.91 µM and a GI50 (SN12C renal) of 3.29 µM. The TGI (SN12C renal) was 11.6 µM, the GI50 (BT-549 breast) was 2.78 µM and the TGI (BT-549 breast) was 8.94 µM.

Molecule `COc1ccc(Nc2c[nH]c(=O)[nH]c2=O)cc1` has a TGI (HL-60(TB) leukemia) greater than 100 µM, a TGI (UACC-62 melanoma) greater than 100 µM and a TGI (HCT-15 colon) greater than 100 µM. For the same molecule, the TGI (NCI-H23 lung) was greater than 100 µM, the TGI (ACHN renal) was greater than 100 µM and the TGI (CAKI-1 renal) was greater than 100 µM. For the same molecule, the TGI (NCI-H226 lung) was greater than 100 µM, the TGI (LOX IMVI melanoma) was greater than 100 µM and the TGI (SK-MEL-5 melanoma) was greater than 100 µM. For the same molecule, the TGI (SNB-19 CNS) was greater than 100 µM, the TGI (HT29 colon) was greater than 100 µM and the TGI (U251 CNS) was greater than 100 µM. For the same molecule, the TGI (MDA-N) was greater than 100 µM, the TGI (MALME-3M melanoma) was greater than 100 µM and the TGI (SF-539 CNS) was greater than 100 µM. The TGI (MDA-MB-231 breast) was greater than 100 µM, the TGI (M14 melanoma) was greater than 100 µM and the TGI (DU-145 prostate) was greater than 100 µM. For the same molecule, the TGI (SW-620 colon) was greater than 100 µM, the TGI (OVCAR-8 ovarian) was greater than 100 µM and the TGI (786-0 renal) was greater than 100 µM. The TGI (KM12 colon) was greater than 100 µM, the TGI (TK-10 renal) was greater than 100 µM and the TGI (OVCAR-4 ovarian) was greater than 100 µM. It also gave a TGI (T-47D breast) greater than 100 µM, a TGI (SK-MEL-2 melanoma) greater than 100 µM and a TGI (SNB-75 CNS) greater than 100 µM. The TGI (HCT-116 colon) was greater than 100 µM, the TGI (K-562 leukemia) was greater than 100 µM and the TGI (CCRF-CEM leukemia) was greater than 100 µM. It also gave a TGI (SK-OV-3 ovarian) greater than 100 µM, a TGI (MCF7 breast) greater than 100 µM and a TGI (PC-3 prostate) greater than 100 µM. The TGI (RXF 393 renal) was greater than 100 µM, the TGI (EKVX NSCLC) was greater than 100 µM and the TGI (UO-31 renal) was greater than 100 µM. It also gave a TGI (RPMI-8226 leukemia) greater than 100 µM, a TGI (NCI-H522 lung) greater than 100 µM and a TGI (HOP-92 NSCLC) greater than 100 µM. For the same molecule, the TGI (HOP-62 NSCLC) was greater than 100 µM, the TGI (HCC-2998 colon) was greater than 100 µM and the TGI (A549 NSCLC) was greater than 100 µM. It also gave a TGI (IGROV1 ovarian) greater than 100 µM, a TGI (NCI/ADR-RES ovarian) greater than 100 µM and a TGI (COLO 205 colon) greater than 100 µM. It also gave a TGI (SF-295 CNS) greater than 100 µM, a TGI (SK-MEL-28 melanoma) greater than 100 µM and a TGI (UACC-257 melanoma) greater than 100 µM. The TGI (MDA-MB-435) was greater than 100 µM, the TGI (A498 renal) was greater than 100 µM and the TGI (OVCAR-3 ovarian) was greater than 100 µM. The TGI (MOLT-4 leukemia) was greater than 100 µM and the TGI (SN12C renal) was greater than 100 µM.
